{"source": "ChEMBL document CHEMBL5321290", "about": "“Discovery of the Diphenyl 6-Oxo-1,6-dihydropyridazine-3-carboxylate/carboxamide Analogue J27 for the Treatment of Acute Lung Injury and Sepsis by Targeting JNK2 and Inhibiting the JNK2-NF-κB/MAPK Pathway” (J Med Chem, 2023)", "key": {"[1]": {"system": "Mus musculus", "test": "Antiinflammatory activity against LPS-induced acute lung injury C57 mouse model assessed as decrease in LPS-induced TNFalpha level in serum at 20 to 40 mg/kg, po thrice at 12 hrs interval followed 30 mins treated with LPS by ELISA", "type": "functional, organism-based", "conditions": "dose 20-40 mg/kg, time 36.5 hrs"}, "[2]": {"system": "J774.A1", "test": "Antiinflammatory activity against mouse J774A.1 cells assessed as inhibition of LPS-stimulated IL6 release measured after 30 mins by ELISA", "type": "functional, cell-based", "conditions": "J774.A1, 0.5 h"}, "[3]": {"system": "THP-1", "test": "Antiinflammatory activity against human THP-1 cells assessed as inhibition of LPS-stimulated IL6 release measured after 30 mins by ELISA", "type": "functional, cell-based", "conditions": "THP-1, 0.5 h"}, "[4]": {"system": "Mus musculus", "test": "Antiinflammatory activity against LPS-induced acute lung injury C57 mouse model assessed as increase in IkappaBalpha level in lung tissue at 40 mg/kg, po thrice at 12 hrs interval followed 30 mins treated with LPS by Western blot analysis", "type": "functional, organism-based", "conditions": "time 36.5 hrs"}, "[5]": {"test": "Cmax in Sprague-Dawley rat at 10 mg/kg, iv measured upto 24 hrs by UPLC-MS/MS analysis", "type": "ADME, organism-based", "design": "dose 10 mg/kg, time < 24 hrs, route iv", "conditions": "in vivo"}, "[6]": {"system": "Mus musculus", "test": "Antiinflammatory activity against LPS-induced acute lung injury C57 mouse model assessed as decrease in LPS-induced total cell count in broncho alveolar lavage fluid at 20 mg/kg, po thrice at 12 hrs interval", "type": "functional, organism-based", "conditions": "Bronchoalveolar lavage"}, "[7]": {"system": "Mus musculus", "test": "Antiinflammatory activity against LPS-induced acute lung injury C57 mouse model assessed as decrease in LPS-induced TNFalpha level in blood at 20 mg/kg, po thrice at 12 hrs interval", "type": "functional, organism-based"}, "[8]": {"test": "Subacute toxicity in ICR mouse assessed as pathological change in kidney at 500 to 100 mg/kg, IG measured for 10 days by hematoxylin and eosin dye based light microscopy", "type": "organism-based", "conditions": "in vivo, po, 240 h, dose 500-100 mg/kg, time 10 day"}, "[9]": {"system": "Mus musculus", "test": "Antiinflammatory activity against LPS-induced septic shock mouse model assessed as improvement in LPS-induced weight loss at 20 mg/kg, po pretreated 1 hr before LPS administration measured upto 120 hrs", "type": "functional, organism-based", "conditions": "time <= 121.0 hrs"}, "[10]": {"system": "Mus musculus", "test": "Antiinflammatory activity against LPS-induced acute lung injury C57 mouse model assessed as reduction in LPS-induced p-JNK level in lung tissue at 40 mg/kg, po thrice at 12 hrs interval followed 30 mins treated with LPS by Western blot analysis", "type": "functional, organism-based", "conditions": "time 36.5 hrs"}, "[11]": {"target": "Mitogen-activated protein kinase 9 (Homo sapiens, UniProt P45984)", "sequence (P45984 whole entry)": "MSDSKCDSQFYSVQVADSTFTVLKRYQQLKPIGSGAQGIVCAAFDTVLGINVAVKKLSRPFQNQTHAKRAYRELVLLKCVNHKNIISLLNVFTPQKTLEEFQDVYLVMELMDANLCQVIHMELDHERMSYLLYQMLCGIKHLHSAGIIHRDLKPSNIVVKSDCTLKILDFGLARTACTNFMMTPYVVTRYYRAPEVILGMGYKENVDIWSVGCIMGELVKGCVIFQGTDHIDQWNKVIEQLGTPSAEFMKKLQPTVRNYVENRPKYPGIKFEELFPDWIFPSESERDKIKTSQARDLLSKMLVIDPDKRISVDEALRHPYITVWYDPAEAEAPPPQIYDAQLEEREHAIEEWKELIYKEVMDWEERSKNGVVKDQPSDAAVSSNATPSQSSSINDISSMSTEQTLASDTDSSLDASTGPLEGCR", "test": "Binding affinity to JNK2 (unknown origin) assessed as dissociation constant by SPR analysis"}, "[12]": {"test": "Subacute toxicity in ICR mouse assessed as mortality at 500 to 100 mg/kg, IG measured for 10 days", "type": "organism-based", "conditions": "in vivo, po, 240 h, dose 500-100 mg/kg, time 10 day"}, "[13]": {"target": "T1, NF-kappa-B inhibitor alpha (Mus musculus) (UniProt Q9Z1E3)", "T1 sequence (whole entry)": "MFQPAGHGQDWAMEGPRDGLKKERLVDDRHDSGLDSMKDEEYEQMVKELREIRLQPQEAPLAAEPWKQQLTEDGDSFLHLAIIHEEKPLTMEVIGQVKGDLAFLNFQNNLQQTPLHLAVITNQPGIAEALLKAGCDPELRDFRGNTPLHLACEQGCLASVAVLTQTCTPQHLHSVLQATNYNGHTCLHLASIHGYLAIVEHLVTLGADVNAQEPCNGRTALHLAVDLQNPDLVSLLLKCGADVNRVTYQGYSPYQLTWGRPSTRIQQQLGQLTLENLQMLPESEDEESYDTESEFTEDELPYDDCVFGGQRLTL", "test": "[…] in mouse J774A.1 cells pretreated at 10 uM for 2 hrs followed by induced with LPS for 30 mins by Western blot analysis", "type": "cell-based", "conditions": "J774.1"}, "[14]": {"system": "J774.A1", "test": "Antiinflammatory activity against mouse J774A.1 cells assessed as inhibition of LPS-stimulated TNFalpha release measured after 30 mins by ELISA", "type": "functional, cell-based", "conditions": "J774.A1, 0.5 h"}, "[15]": {"system": "Mus musculus", "test": "Antiinflammatory activity against LPS-induced acute lung injury C57 mouse model assessed as decrease in LPS-induced lung wet to dry weight ratio at 20 mg/kg, po thrice at 12 hrs interval", "type": "functional, organism-based"}, "[16]": {"system": "Mus musculus", "test": "Antiinflammatory activity against LPS-induced acute lung injury C57 mouse model assessed as reduction in LPS-induced neutrophil numbers in alveolar lavage fluid at 20 to 40 mg/kg, po thrice at 12 hrs interval followed 30 mins treated with LPS", "type": "functional, organism-based", "conditions": "dose 20-40 mg/kg, time 36.5 hrs"}, "[17]": {"system": "J774.A1", "test": "Antiinflammatory activity against mouse J774A.1 cells assessed as inhibition of LPS-stimulated IL6 release measured at 10 uM after 30 mins by ELISA relative to control", "type": "functional", "conditions": "J774.A1, 0.5 h"}, "[18]": {"system": "THP-1", "test": "Antiinflammatory activity against human THP-1 cells assessed as inhibition of LPS-stimulated IL6 mRNA expression pretreated for 2 hrs followed by stimulated with LPS by RT-qPCR analysis", "type": "functional, cell-based", "conditions": "dose 2.5-10 µM"}, "[19]": {"test": "Half life in Sprague-Dawley rat at 10 mg/kg, iv measured upto 24 hrs by UPLC-MS/MS analysis", "type": "ADME, organism-based", "conditions": "in vivo"}, "[20]": {"target": "T2, Mitogen-activated protein kinase kinase kinase 7 (Mus musculus) (UniProt Q62073)", "T2 sequence (whole entry)": "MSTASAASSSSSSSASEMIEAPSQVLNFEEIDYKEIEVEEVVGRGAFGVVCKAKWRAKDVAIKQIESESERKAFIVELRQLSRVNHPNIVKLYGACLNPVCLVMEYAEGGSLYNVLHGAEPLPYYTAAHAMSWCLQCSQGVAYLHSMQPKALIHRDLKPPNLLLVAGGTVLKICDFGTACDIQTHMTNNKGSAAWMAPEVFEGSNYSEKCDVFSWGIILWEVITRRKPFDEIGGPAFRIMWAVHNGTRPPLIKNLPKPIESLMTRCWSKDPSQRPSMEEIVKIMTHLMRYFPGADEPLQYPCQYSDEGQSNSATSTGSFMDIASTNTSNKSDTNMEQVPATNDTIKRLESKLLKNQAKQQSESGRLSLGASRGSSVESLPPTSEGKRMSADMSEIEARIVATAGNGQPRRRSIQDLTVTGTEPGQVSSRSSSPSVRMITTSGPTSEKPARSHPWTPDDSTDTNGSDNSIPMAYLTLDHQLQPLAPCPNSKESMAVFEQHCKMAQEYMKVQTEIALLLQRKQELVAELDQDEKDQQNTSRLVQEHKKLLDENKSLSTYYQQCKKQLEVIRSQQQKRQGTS", "test": "Inhibition of TAK1 phosphorylation in mouse J774A.1 cells pretreated at 10 uM for 2 hrs followed by induced with LPS for 30 mins by Western blot analysis", "type": "cell-based", "conditions": "J774.1, time 2.5 hrs"}, "[21]": {"system": "Mus musculus", "test": "Antiinflammatory activity against LPS-induced acute lung injury C57 mouse model assessed as reduction in LPS-induced p-p65 level in lung tissue at 40 mg/kg, po thrice at 12 hrs interval followed 30 mins treated with LPS by Western blot analysis", "type": "functional, organism-based", "conditions": "time 36.5 hrs"}, "[22]": {"system": "Mus musculus", "test": "Antiinflammatory activity against LPS-induced septic shock mouse model assessed as improvement in survival at 20 mg/kg, po pretreated 1 hr before LPS administration measured upto 96 hrs", "type": "functional, organism-based", "conditions": "time <= 97.0 hrs"}, "[23]": {"target": "c-Jun N-terminal kinase (Mus musculus) (UniProt Q91Y86+Q9WTU6+Q61831)", "sequence (Q61831 whole entry, looked up)": "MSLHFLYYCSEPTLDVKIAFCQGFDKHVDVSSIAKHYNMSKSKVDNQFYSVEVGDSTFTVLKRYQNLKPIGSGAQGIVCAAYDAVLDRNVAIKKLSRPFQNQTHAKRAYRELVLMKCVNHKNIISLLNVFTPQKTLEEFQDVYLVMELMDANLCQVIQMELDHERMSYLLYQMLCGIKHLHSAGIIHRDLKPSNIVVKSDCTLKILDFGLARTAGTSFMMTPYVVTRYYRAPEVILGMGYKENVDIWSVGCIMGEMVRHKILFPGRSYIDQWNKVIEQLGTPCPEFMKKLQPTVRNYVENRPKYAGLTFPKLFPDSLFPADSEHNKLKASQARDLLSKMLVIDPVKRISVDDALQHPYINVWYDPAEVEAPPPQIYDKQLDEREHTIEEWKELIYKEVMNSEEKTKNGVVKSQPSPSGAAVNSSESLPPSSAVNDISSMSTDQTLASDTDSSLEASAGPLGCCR", "sequence (Q91Y86 whole entry, looked up)": "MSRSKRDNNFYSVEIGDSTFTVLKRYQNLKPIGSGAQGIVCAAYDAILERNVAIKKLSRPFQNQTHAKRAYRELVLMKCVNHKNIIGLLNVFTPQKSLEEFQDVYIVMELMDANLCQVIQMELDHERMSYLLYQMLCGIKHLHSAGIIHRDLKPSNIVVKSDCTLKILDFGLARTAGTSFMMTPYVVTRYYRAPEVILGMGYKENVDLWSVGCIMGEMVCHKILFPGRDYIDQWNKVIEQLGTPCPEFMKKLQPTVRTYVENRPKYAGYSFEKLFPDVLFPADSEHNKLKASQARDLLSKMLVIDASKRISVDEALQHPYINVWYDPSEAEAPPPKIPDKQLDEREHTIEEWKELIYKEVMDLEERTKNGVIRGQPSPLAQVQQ", "sequence (Q9WTU6 whole entry, looked up)": "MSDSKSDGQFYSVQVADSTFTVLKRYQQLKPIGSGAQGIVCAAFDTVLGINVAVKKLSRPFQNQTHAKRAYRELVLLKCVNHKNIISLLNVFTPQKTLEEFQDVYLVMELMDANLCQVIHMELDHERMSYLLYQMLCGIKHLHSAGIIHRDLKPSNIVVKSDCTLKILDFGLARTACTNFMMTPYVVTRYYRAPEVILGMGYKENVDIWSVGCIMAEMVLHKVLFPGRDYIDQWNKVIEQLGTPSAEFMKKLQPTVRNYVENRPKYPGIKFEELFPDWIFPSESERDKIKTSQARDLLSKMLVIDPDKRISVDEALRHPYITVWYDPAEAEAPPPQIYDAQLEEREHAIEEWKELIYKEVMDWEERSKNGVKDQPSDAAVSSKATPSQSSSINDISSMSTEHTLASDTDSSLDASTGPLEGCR", "test": "Inhibition of JNK phosphorylation in mouse J774A.1 cells assessed as decrease in LPS-stimulated JNK phosphorylation level pretreated at 10 uM for 1 hrs followed by induced with LPS for 40 mins by Western blot analysis", "type": "cell-based", "conditions": "J774.1, time 100.0 min"}}, "note": "Active and inactive are the calls of the source. The rule behind the calls is not given here."}
{"smiles": "COc1cc2nccc(Oc3ccc(NC(=O)c4nn(-c5ccc(C)cc5)c(=O)cc4C)cc3)c2cc1OC", "values": [{"measurement": "Activity", "setting": "[1]", "value": "Active"}, {"measurement": "IC50", "setting": "[2]", "value": 7.11, "unit": "µM"}, {"measurement": "IC50", "setting": "[3]", "value": 0.22, "unit": "µM"}, {"measurement": "Activity", "setting": "[4]", "value": "Active"}, {"measurement": "Cmax", "setting": "[5]", "value": 1460, "unit": "ng/mL"}, {"measurement": "Activity", "setting": "[6]", "value": "inactive"}, {"measurement": "Activity", "setting": "[7]", "value": "Active"}, {"measurement": "Activity", "setting": "[8]", "value": "Non-Toxic"}, {"measurement": "Activity", "setting": "[9]", "value": "Active"}, {"measurement": "Activity", "setting": "[10]", "value": "Active"}, {"measurement": "Kd", "setting": "[11]", "value": 79.2, "unit": "µM"}, {"measurement": "Activity", "setting": "[12]", "value": "Non-Toxic"}, {"measurement": "Activity", "setting": "[13]", "value": "Active"}, {"measurement": "IC50", "setting": "[14]", "value": 5.3, "unit": "µM"}, {"measurement": "Activity", "setting": "[15]", "value": "inactive"}, {"measurement": "Activity", "setting": "[16]", "value": "Active"}, {"measurement": "inhibition at 10 µM", "setting": "[17]", "value": 71.5, "unit": "%"}, {"measurement": "Activity", "setting": "[18]", "value": "Dose-Dependent Effect"}, {"measurement": "half-life", "setting": "[19]", "value": 1.15, "unit": "h"}, {"measurement": "inhibition", "setting": "[20]", "value": "Active"}, {"measurement": "Activity", "setting": "[21]", "value": "Active"}, {"measurement": "Activity", "setting": "[22]", "value": "Active"}, {"measurement": "inhibition", "setting": "[23]", "value": "Active"}]}
